Measured values taken from PMC8624133, “10th Trends in Medical Mycology Held on 8 to 11 October 2021, Aberdeen, Scotland, Organized by the European Confederation of Medical Mycology (ECMM)” (Journal of Fungi, 2021).
≈ marks a conversion by molar mass, not a printed value. Read-outs that look alike come from different tables or passages of the source. Starred links: 1 amine or outer side, 2 acyl side, 3 side chain; linkers in the order of their positions; H or OH if unused. Positions of bridges follow the written chain, without caps; N, C: chain ends. Non-standard residues stand in square brackets, D forms with d. Residues, ends and D or L forms follow the SMILES beside them. *: point of attachment. hTyr(3S-OH,4S-OH,3'-OSO3H) = N[C@H](C(=O)O)[C@H](O)[C@@H](O)c1ccc(O)c(OS(=O)(=O)O)c1; Orn(4R-OH,5R-OH) = O=C([C@H](C[C@@H](O)[C@@H](O)N[*:3])N[*:1])[*:2]; Pro(3S-OH,4S-Me) = C[C@H]1CN[C@H](C(=O)O)[C@H]1O; X1 = CCCCCOc1ccc(-c2cc(-c3ccc(C(=O)*)cc3)no2)cc1; Gln(3R-OH) = NC(=O)C[C@@H](O)[C@H](N)C(=O)O; Hyp = O=C(O)[C@@H]1C[C@@H](O)CN1

Tests used:
C. albicans [1] = format: cell-based, Candida albicans
C. krusei [2] = assay: ARIA surveillance, CLSI M27 broth microdilution; format: cell-based, Candida krusei
Description: Materials & Methods: Isolates (n = 730) were collected and re-identified by MALDI-TOF or molecular methods. […] Percentage susceptibility (%S) or wild-type (%WT) were calculated according to CLSI breakpoints (CLSI supplement M60) or epidemiological cut-off values (CLSI supplement M59), respectively.

C. glabrata (CGLA) = assay: Post-antifungal effect (PAFE); format: cell-based, Candida glabrata
Description: (§1) Materials &Methods: Six Candida spp. […] For PAFE determinations, antifungal concentrations of 1×, 4×, and 16× bMiC were used. A starting inoculum of 1–[…] CFU/mLwas added to RPMl with the antifungal agent. Post 1 h exposure, cells were washed 3 times and resuspended in 10 mL of pre-warmed RPMl. Colony counts were performed at to, 1 h before and after final washt t2, t4, t8, t12, t24 and t48 h. PAFE was calculated as the difference in time required for isolates to rrow1-logio following the final cell wash compared to the growth control.

C. fermentati = assay: EUCAST E. Def 7.3.2 microdilution; format: cell-based, Candida fermentati; conditions: n = 2
Candida auris isolates [3] = assay: microbe, parasite or virus in culture; format: cell-based; conditions: for categorised as resistant on MIC: CDC guidelines; for MIC: Candidozyma auris, IQR given, read-out: median MIC
C. parapsilosis = format: cell-based, Candida parapsilosis
C. tropicalis = format: cell-based, Candida tropicalis
C. glabrata [4] = format: cell-based, Candida glabrata
C. parapsilosis (CPRP) = assay: Post-antifungal effect (PAFE); format: cell-based, Candida parapsilosis
Description: as §1

C. krusei [5] = format: cell-based, Candida krusei
Other species of Candida = format: cell-based, Candida spp.
[6] = test system: invasive C. glabrata strains; assay: YeastOne Sensititre colorimetric broth microdilution; format: cell-based, Candida glabrata; conditions: Nakaseomyces glabratus
Description: Material and Method: Thirty-six clinical isolates of invasive C. glabrata strains were analyzed in this study. Minimum inhibitory concentrations (MICs) were determined using colorimetric broth microdilution (YeastOneSensititre, Trek diagnostics). Genomic DNA was isolated using Qiagen DNA extraction Kit. The FKS1 and FKS2 gene fragment were amplified and PCR products were purified prior to sequencing. Double-strand sequencing of PCR products was performed using Sanger sequencing methodology. Sequences were analyzed with MEGA-6 software to identify specific SNP combination against wild-type sequences of C. glabrata.

Candida albicans (CA) = assay: Post-antifungal effect (PAFE); format: cell-based; conditions: CA clinical isolate; all concentrations (1×, 4×, 16× bMIC), 1 h exposure
Description: as §1

[7] = test system: C. albicans and C. glabrata; assay: FUNGINOS candidemia survey, susceptibility according to CLSI; format: cell-based; conditions: share of isolates
[8] = test system: C. auris clinical strains; assay: organism not typed; format: cell-based, Candida auris; conditions: range, 78 strains from patients with COVID-19
C. guilliermondii = assay: EUCAST E. Def 7.3.2 microdilution; format: cell-based, Candida guilliermondii; conditions: n = 62
[9] = test system: Candida spp. blood isolates; conditions: 2009–2018
Description: Ward of hospitalization at the time of the diagnosis, species identification and in vitro antifungal susceptibility profile (where available) were recorded. Identification of Candida isolates and susceptibility testing were performed as per hospital protocol. Annual incidence rates/100,000 inhabitants were calculated. Chi-square test for trend was used for evaluation of changes in species distribution.

C. albicans [10] = assay: Candidemia Netherlands, MIC distributions against EUCAST ECOFF; format: cell-based, Candida albicans
[11] = test system: sessile cells of yeast mono and dual-species biofilms; assay: MIC of catheter yeast isolates, mono and dual-species biofilms; format: cell-based; conditions: range
[12] = test system: Candida sp. and other yeast isolates, planktonic; assay: MIC of catheter yeast isolates, planktonic form; format: cell-based; conditions: range; read-out: MIC
Candida auris isolates [13] = assay: Disc diffusion, Oxoid discs; format: cell-based
C. glabrata [14] = assay: Candidemia Netherlands, MIC distributions against EUCAST ECOFF; format: cell-based, Candida glabrata
Aspergillus tubingensis = assay: EUCAST susceptibility; format: cell-based
Description: The fungus was identified as Aspergillus niger and liposomal amphotericine B was switched to anidulafungin pending susceptibility testing as the patient had pre-existing […] (eGFR CKD-EPI 40 mL/min/1.73 m²). […] Despite increasing the anidulafungin dosage to 200 mg daily and adequate voriconazol levels, serum galactomannan levels remained elevated (index 2.1 at discharge). […] Since no extracardiac sources were found and the patient did well clinically, they were discharched. Anidulafungin was switched to caspofungin to facilitate ongoing IV treatment in the outpatient setting. […] The patient died shortly after. Obduction was not performed.

F. verticillioides = assay: Etest susceptibility; format: cell-based, Fusarium verticillioides
[15] = test system: environmental yeasts from a lagoon; assay: organism not typed; format: cell-based
[16] = test system: Exophiala phaeomuriformis; assay: MIC, CLSI M27-A3; format: cell-based; conditions: read-out: MIC values
Description: Materials & Methods: The aviation kerosone samples came from an aviation company in Porto Alegre, state of Rio Grande do Sul, Brazil. The fungi isolation was carried out using the modified ASTM D6974-09 Standard. In this procedure, 500 mL kerosene samples were filtered, in triplicate, under aseptic conditions, under vacuum, using a 0.22 μm membrane (Millipore). After filtering, the membranes were deposited in potato dextrose agar culture medium. The plates were incubated in an oven at 30 °C for seven days. After this period, the colonies were isolated in new culture media for purification of the isolates. Molecular identification was performed through the sequencing of ITS DNA regions. The profile of sensitivity to clinical antifungals was assessed following protocols M27-A3 of the Clinical and Laboratory Standards Institute (CLSI).

[17] = 36 clinical isolates, read-out: median (Min–Max) MIC

| Compound | I (intermediate) isolates, n (%) (C. albicans [1]) | R (resistant) isolates, n (%) (C. albicans [1]) | S (sensitive) isolates, n (%) (C. albicans [1]) | categorised as resistant on MIC (Candida auris isolates [3]) [%] | MIC (Candida auris isolates [3]) [µg/mL] | I (intermediate) isolates, n (%) (C. parapsilosis) | R (resistant) isolates, n (%) (C. parapsilosis) | S (sensitive) isolates, n (%) (C. parapsilosis) | I (intermediate) isolates, n (%) (C. tropicalis) | R (resistant) isolates, n (%) (C. tropicalis) | S (sensitive) isolates, n (%) (C. tropicalis) | R (resistant) isolates, n (%) (C. glabrata [4]) | S (sensitive) isolates, n (%) (C. glabrata [4]) | S (sensitive) isolates, n (%) (C. krusei [5]) | I (intermediate) isolates, n (%) (Other species of Candida) | R (resistant) isolates, n (%) (Other species of Candida) | S (sensitive) isolates, n (%) (Other species of Candida) | MIC [6, 17] [µg/mL] | MIC ([6]; isolate with FKS2 I661T) [µg/mL] | MIC [8] [µg/mL] | also measured |
| --- | --- | --- | --- | --- | --- | --- | --- | --- | --- | --- | --- | --- | --- | --- | --- | --- | --- | --- | --- | --- | --- |
| CCCCCOc1ccc(-c2cc(-c3ccc(C(=O)N[C@H]4C[C@@H](O)[C@@H](O)NC(=O)[C@@H]5[C@@H](O)[C@@H](C)CN5C(=O)[C@H]([C@H](O)CC(N)=O)NC(=O)[C@H]([C@H](O)[C@@H](O)c5ccc(O)c(OS(=O)(=O)O)c5)NC(=O)[C@@H]5C[C@@H](O)CN5C(=O)[C@H]([C@@H](C)O)NC4=O)cc3)no2)cc1 [micafungin] (X1-[Orn(4R-OH,5R-OH)]T[Hyp][hTyr(3S-OH,4S-OH,3'-OSO3H)][Gln(3R-OH)][Pro(3S-OH,4S-Me)]; lactam 1-C) | 1 (0.7%) | 1 (0.7%) | 136 (98.6%) | 1.4 | 0.12 (≈ 0.0945 µM) | 0 (0%) | 0 (0%) | 132 (100%) | 0 (0%) | 0 (0%) | 44 (100%) | 0 (0%) | 55 (100%) | 3 (100%) | 0 (0%) | 0 (0%) | 18 (100%) | 0.015 | 0.015 | 0.06 to 1 (≈ 0.0472 to 0.787 µM) | susceptibility (C. krusei [2]; Argentina, Australia, Italy and Taiwan): 100%; susceptibility (C. krusei [2]; USA): 73.3%; PAFE (C. glabrata (CGLA); CGLA #3 isolate, 1× bMIC): 20.4 h; PAFE (C. glabrata (CGLA); both CGLA strains, all concentrations): > 40 h; GM (C. fermentati): 0.125 µg/mL; MIC Range (C. fermentati): 0.125 µg/mL (≈ 0.0984 µM); I (intermediate) isolates, n (%) (C. glabrata [4]): 0 (0%); PAFE (C. parapsilosis (CPRP); CPRP ATCC 22019, 1× and 4× bMIC): no micafungin PAFE was observed; PAFE (C. parapsilosis (CPRP); CPRP ATCC 22019, 16× bMIC): 1.8 h; PAFE (C. parapsilosis (CPRP); CPRP clinical isolate, 1× bMIC): 1.6 h; PAFE (C. parapsilosis (CPRP); CPRP clinical isolate, 4× bMIC): 7.4 h; PAFE (C. parapsilosis (CPRP); CPRP clinical isolate, 16× bMIC): 31.3 h; PAFE (Candida albicans (CA)): > 14.9 h; non-susceptibility [7]: 2%; MIC50 (C. guilliermondii; Meyerozyma guilliermondii): 0.25 µg/mL (≈ 0.197 µM); MIC90 (C. guilliermondii; Meyerozyma guilliermondii): 0.5 µg/mL (≈ 0.394 µM); GM (C. guilliermondii): 0.228 µg/mL; MIC Range (C. guilliermondii): 0.008 to 0.5 µg/mL |
| Nc1[nH]c(=O)ncc1F [5-flucytosine] |  |  |  |  |  |  |  |  |  |  |  |  |  |  |  |  |  |  |  | 0.06 to 0.12 (≈ 0.465 to 0.93 µM) | Resistance [9]: No resistance |
| CC[C@H](C)C[C@H](C)CCCCCCCCC(=O)N[C@H]1C[C@@H](O)[C@@H](NCCN)NC(=O)[C@@H]2[C@@H](O)CCN2C(=O)[C@H]([C@H](O)CCN)NC(=O)[C@H]([C@H](O)[C@@H](O)c2ccc(O)cc2)NC(=O)[C@@H]2C[C@@H](O)CN2C(=O)[C@H]([C@@H](C)O)NC1=O [caspofungin] | 0 (0%) | 0 (0%) | 138 (100) | 13.2 | 0.12 (≈ 0.11 µM) | 0 (0%) | 0 (0%) | 132 (100%) | 0 (0%) | 0 (0%) | 44 (100%) | 3 (5.5%) | 44 (80%) | 2 (66.7%) | 0 (0%) | 0 (0%) | 18 (100%) | 0.06 | 0.12 | 0.06 to 1 (≈ 0.0549 to 0.915 µM) | isolates within the wildtype distribution range (C. albicans [10]): 98.9%; MIC [11]: 0.5 to 16 µg/mL; MIC [12]: 0.06 to 1 µg/mL; categorised as resistant on ZD (Candida auris isolates [13]): none; median zone diameter (ZD) (Candida auris isolates [13]; 25 µg FLU and 5 µg CAS discs, […]): 23 mm; isolates within the wildtype distribution range (C. glabrata [14]): 87.1%; MIC (Aspergillus tubingensis): 60 µg/mL (≈ 54.9 µM); I (intermediate) isolates, n (%) (C. krusei [5]): 1 (33.3%); minimum inhibitory concentration (MIC), in words (F. verticillioides): high values; isolates classified as resistant-like ([15]; number of 71 yeasts, MIC at or above Candida breakpoint): 48; MIC ([15]; range, read-out: MIC of resistant-like isolates): 1 to 128 µg/mL; MIC ([6]; isolate with FKS1 D632H): 0.25 µg/mL; MIC [16]: > 8 µg/mL |
